Values of other authors as cited in patent publication US20210338678A1, “BIOACTIVE VITAMIN COMBINATIONS” (BioVit, Inc., priority 2020, published 2021).

Legend:
[1] = patients with type 2 diabetes, 16 weeks of treatment
[2] = system: acute and chronic pain and inflammation; details: mice
[3] = system: CD8+T lymphocytes and natural killer (NK) cell activity; details: vitamin B12-deficient patients
[4] = system: H1N1 influenza vaccine response; details: mothers supplemented during pregnancy and postpartum

Question: For `CN(C)C(=N)N=C(N)N` [metformin, Metformin], which homocysteine [1] is on record?
Answer: The homocysteine was “modest increase in homocysteine”.

Question: What about the “levels of folate and vitamin B12” value [1] of the same compound?
Answer: The value was “reduces levels of folate and vitamin B12”.

Question: With cyanocobalamin as the compound, how does the “control of acute and chronic neuropathic pain” value [2] read?
Answer: Its value is “controlling acute and chronic neuropathic pain”.

Question: Which “antibody response of the immune system” value [3] does the source give for `C/C1=C2/[N-][C@H]([C@H](CC(N)=O)[C@@]2(C)CCC(=O)NC[C@@H](C)OP(=O)([O-])O[C@H]2[C@@H](O)[C@@H](n3cnc4cc(C)c(C)cc43)O[C@@H]2CO)[C@]2(C)N=C(/C(C)=C3N=C(/C=C4N=C1[C@@H](CCC(N)=O)C\4(C)C)[C@@H](CCC(N)=O)[C@]\3(C)CC(N)=O)[C@@H](CCC(N)=O)[C@]2(C)CC(N)=O.[CH3-].[Co+3]` [methylcobalamin, Methylcobalamin] here?
Answer: Its value is “improves the antibody response of the immune system”.

Question: For Vitamin B12, which “H1N1 influenza vaccine response” value [4] is on record?
Answer: Its value is “improved H1N1 influenza vaccine response in mothers”.
